# Data as given in patent US5770380A (priority 1996, dated 1998).
# Molecular target: melittin (Apis mellifera, UniProt P01501)
# Assay: biochemical
# Type: binding, bee
# Sequence of melittin (P01501 44-69 limits assumed): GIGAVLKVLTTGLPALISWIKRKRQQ
smiles,measurement,value
"CCCCOc1c2cc(C(=O)Nc3cc4cc(c3)C(=O)NCC(=O)N[C@@H](CC(=O)O)C(=O)NCC(=O)N[C@@H](CC(=O)O)C(=O)NC4)cc1Cc1cc(C(=O)Nc3cc4cc(c3)C(=O)NCC(=O)N[C@@H](CC(=O)O)C(=O)NCC(=O)N[C@@H](CC(=O)O)C(=O)NC4)cc(c1OCCCC)Cc1cc(C(=O)Nc3cc4cc(c3)C(=O)NCC(=O)N[C@@H](CC(=O)O)C(=O)NCC(=O)N[C@@H](CC(=O)O)C(=O)NC4)cc(c1OCCCC)Cc1cc(C(=O)Nc3cc4cc(c3)C(=O)NCC(=O)N[C@@H](CC(=O)O)C(=O)NCC(=O)N[C@@H](CC(=O)O)C(=O)NC4)cc(c1OCCCC)C2 [compound 1, Calix[4]arenetetracyclicpeptide1]",Kd,1000 nM
